Tests used:
[1] = tested on: Septoria tritici (leaf blotch); assay: Septoria tritici liquid culture growth inhibition (microtiter plate, PDB); type: cell-based; details: single active ingredient, 72 hrs
Source text: (§1) A synergistic effect exists whenever the action of an active ingredient combination is greater than the sum of the actions of the individual components. The action to be expected E for a given active ingredient combination obeys the so-called COLBY formula and can be calculated as follows (COLBY, S. R. “Calculating synergistic and antagonistic responses of herbicide combination”. Weeds, Vol. 15, pages 20-22; 1967): • ppm=milligrams of active ingredient (=a.i.) per liter of spray mixture • X=% action by active ingredient A) using p ppm of active ingredient • Y=% action by active ingredient B) using q ppm of active ingredient.
(§2) According to COLBY, the expected (additive) action of active ingredients A)+B) using p+q ppm of active ingredient is
(§3) If the action actually observed (O) is greater than the expected action (E), then the action of the combination is super-additive, i.e. there is a synergistic effect. In mathematical terms, synergism corresponds to a positive value for the difference of (O-E). In the case of purely complementary addition of activities (expected activity), said difference (O-E) is zero. A negative value of said difference (O-E) signals a loss of activity compared to the expected activity.
Septoria tritici (Leaf Blotch):
Conidia of the fungus from cryogenic storage were directly mixed into nutrient broth (PDB potato dextrose broth). A DMSO solution of the test compounds was placed into a microtiter plate (96-well format) and the nutrient broth containing the fungal spores was added to it. The test plates were incubated at 24 C and the inhibition of growth was determined photometrically after 72 hrs.

[2] = tested on: Glomerella lagenarium syn. Colletotrichum lagenarium (Anthracnose of cucurbits); assay: Glomerella lagenarium liquid culture growth inhibition (microtiter plate, PDB); type: cell-based; details: single active ingredient, 72 hrs
Source text: A synergistic effect exists whenever the action of an active ingredient combination is greater than the sum of the actions of the individual components. The action to be expected E for a given active ingredient combination obeys the so-called COLBY formula and can be calculated as follows (COLBY, S. R. “Calculating synergistic and antagonistic responses of herbicide combination”. Weeds, Vol. 15, pages 20-22; 1967): • ppm=milligrams of active ingredient (=a.i.) per liter of spray mixture • X=% action by active ingredient A) using p ppm of active ingredient • Y=% action by active ingredient B) using q ppm of active ingredient. According to COLBY, the expected (additive) action of active ingredients A)+B) using p+q ppm of active ingredient is If the action actually observed (O) is greater than the expected action (E), then the action of the combination is super-additive, i.e. there is a synergistic effect. In mathematical terms, synergism corresponds to a positive value for the difference of (O-E). In the case of purely complementary addition of activities (expected activity), said difference (O-E) is zero. A negative value of said difference (O-E) signals a loss of activity compared to the expected activity. Glomerella Lagenarium Syn. Colletotrichum lagenarium (Anthracnose of Cucurbits): Conidia of the fungus from cryogenic storage were directly mixed into nutrient broth (PDB potato dextrose broth). A DMSO solution of the test compounds was placed into a microtiter plate (96-well format) and the nutrient broth containing the fungal spores was added to it. The test plates were incubated at 24 C and the inhibition of growth was determined photometrically after 72 hrs at 620 nm.

[3] = tested on: Phakopsora pachyrhizi (Asian soybean rust); assay: Phakopsora pachyrhizi soybean leaf disk test after whole plant spray; type: in vivo; details: single active ingredient, evaluation 11 to 14 days after inoculation
Source text: as §1, §2, §3
Phakopsora pachyrhizi (Soybean Rust):
Whole soybean plants are treated with the recited active ingredients 4 weeks after planting. 1 day after spraying leaf disks are cut from the first trifoliate leaf. Five repetitions at each rate are conducted. The leaf disks are inoculated with Phakopsora pachyrhizi (Asian soybean rust) one day after treatment. Evaluation of the leaf disks is conducted 11 to 14 days after inoculation and the activity is derived from the relation of the treated vs untreated, infested check. The rates of the active ingredients used are given in Table as g active ingredient (a.i.)/ha.

Molecule | Observed Activity (%) ([1]; 10 g ai/ha) | Observed Activity (%) ([1]; 20 g ai/ha, 24 C) | Observed Activity (%) ([2]; 10 g ai/ha) | Observed Activity (%) ([2]; 20 g ai/ha, 24 C, 620 nm) | inhibition at 0.1 g/ha ([3]; Phakopsora pachyrhizi, foliar, 0.1 g ai/ha, read-out: Observed Activity (%)) [%] | Observed Activity (%) ([2]; 0.74 g ai/ha) | Observed Activity (%) ([2]; 2.22 g ai/ha) | Observed Activity (%) ([2]; 6.66 g ai/ha) | Observed Activity (%) ([3]; 0.1 g ai/ha) | Observed Activity (%) ([3]; 0.3 g ai/ha) | Observed Activity (%) ([3]; 0.9 g ai/ha) | Observed Activity (%) ([1]; 0.0246 g ai/ha) | Observed Activity (%) ([1]; 0.074 g ai/ha) | Observed Activity (%) ([1]; 0.22 g ai/ha)
CCOC(=O)c1cnn(Cc2ccc(O/C=C(\OCC)C(F)(F)F)cc2)c1 [Compound A-1.2, ethyl 1-[[4-[[(1Z)-2-ethoxy-3,3,3-trifluoro-1-propen-1-yl]oxy]phenyl]methyl]-1H-pyrazole-4-carboxylate] | 0 | 0 | 0 | 0 | 16 |  |  |  |  |  |  |  |  | 
O=C(Nc1ccccc1F)c1ccc(-c2noc(C(F)(F)F)n2)cc1 [Flufenoxadiazam, flufenoxadiazam] |  |  |  | 90 |  | 20 | 20 | 50 | 3 | 5 | 31 |  |  | 
CCC(=O)Oc1c(OC)ccnc1C(=O)N[C@@H](C)C(=O)O[C@@H](C)[C@@H](C)c1ccccc1C [Metarylpicoxamid, metarylpicoxamid] |  |  |  |  |  |  |  |  | 0 | 51 |  |  |  | 
inpyrfluxam |  |  |  |  |  |  |  |  | 13 | 25 | 68 | 20 | 70 | 90

— patent US20240389592A1, “FUNGICIDAL COMPOSITIONS” (SYNGENTA CROP PROTECTION AG, priority 2021, published 2024)
